Data as given in US12540129B2, “KIF18A inhibitors” (AMGEN INC., priority 2019, dated 2026).

These compounds were tested against T1, Recombinant human KIF18A (1-467 His-tagged) protein (Homo sapiens, UniProt Q8NI77) (assay: KIF18A Enzyme Assay: microtubule-stimulated ATPase activity (ADP-Glo)). Conditions: 30 nM KIF18A, 75 μM ATP.
T1 construct: Recombinant human KIF18A (1-467 His-tagged) protein; His; made in house
Type: biochemical
Outline: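 ADP-Glo luminescence reports ADP produced by His-tagged human KIF18A motor domain (1-467, insect-cell expressed) with microtubules and ATP.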

T1 sequence (Q8NI77 1-467): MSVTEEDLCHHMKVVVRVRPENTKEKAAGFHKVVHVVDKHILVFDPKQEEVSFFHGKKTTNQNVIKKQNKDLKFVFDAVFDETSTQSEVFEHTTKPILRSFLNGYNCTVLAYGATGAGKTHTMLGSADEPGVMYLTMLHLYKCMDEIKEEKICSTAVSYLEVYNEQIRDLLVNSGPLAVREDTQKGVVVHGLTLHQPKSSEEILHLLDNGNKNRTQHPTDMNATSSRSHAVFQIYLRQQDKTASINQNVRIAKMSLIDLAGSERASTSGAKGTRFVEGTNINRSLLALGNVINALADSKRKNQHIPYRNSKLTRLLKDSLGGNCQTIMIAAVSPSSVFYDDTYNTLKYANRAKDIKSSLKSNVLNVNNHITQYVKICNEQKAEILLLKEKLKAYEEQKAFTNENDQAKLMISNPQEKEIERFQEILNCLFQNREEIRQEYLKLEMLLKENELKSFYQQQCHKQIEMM
T1 sequence (P02550 whole entry partner): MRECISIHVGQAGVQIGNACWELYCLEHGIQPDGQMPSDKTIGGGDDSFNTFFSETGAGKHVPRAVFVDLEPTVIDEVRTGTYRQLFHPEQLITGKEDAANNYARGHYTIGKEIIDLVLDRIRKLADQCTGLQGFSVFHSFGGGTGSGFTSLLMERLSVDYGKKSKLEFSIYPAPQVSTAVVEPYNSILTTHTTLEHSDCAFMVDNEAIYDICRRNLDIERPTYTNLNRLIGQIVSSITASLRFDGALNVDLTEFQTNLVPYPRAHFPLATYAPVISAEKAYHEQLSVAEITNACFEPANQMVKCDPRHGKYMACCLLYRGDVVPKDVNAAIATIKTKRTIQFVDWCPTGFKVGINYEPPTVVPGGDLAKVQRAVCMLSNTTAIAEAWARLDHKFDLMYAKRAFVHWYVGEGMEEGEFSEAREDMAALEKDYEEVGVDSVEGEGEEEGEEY
T1 sequence (P02554 whole entry partner): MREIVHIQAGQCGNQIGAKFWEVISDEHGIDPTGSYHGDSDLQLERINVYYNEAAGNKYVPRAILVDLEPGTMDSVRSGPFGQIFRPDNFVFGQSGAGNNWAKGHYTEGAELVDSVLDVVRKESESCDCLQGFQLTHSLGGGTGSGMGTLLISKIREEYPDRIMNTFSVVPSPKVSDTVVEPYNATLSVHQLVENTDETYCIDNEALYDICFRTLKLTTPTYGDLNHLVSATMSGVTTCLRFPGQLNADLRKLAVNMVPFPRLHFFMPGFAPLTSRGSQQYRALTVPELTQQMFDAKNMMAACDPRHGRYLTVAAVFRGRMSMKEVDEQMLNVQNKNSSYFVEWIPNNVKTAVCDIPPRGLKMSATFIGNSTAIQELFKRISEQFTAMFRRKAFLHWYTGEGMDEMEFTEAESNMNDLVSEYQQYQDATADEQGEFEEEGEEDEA

Row | SMILES | IC50 [µM]
1 | CC1(C)CCN(c2ncccc2C(=O)Nc2cccc(S(=O)(=O)N3CCCCC3)c2)CC1 [Example 100, 2-(4,4-Dimethylpiperidin-1-yl)-N-(3-(piperidin-1-ylsulfonyl)phenyl)nicotinamide] | 0.553
2 | CC1(O)CN(c2ccc(C(=O)Nc3cccc(S(=O)(=O)NC(C)(C)C)c3)c(N3CCC4(CC3)CC4)n2)C1 [Example 102-13, N-(3-(N-(tert-butyl)sulfamoyl)phenyl)-6-(3-hydroxy-3-methylazetidin-1-yl)-2-(6-azaspiro[2.5]octan-6-yl)nicotinamide] | 0.196
3 | CC(C)(C)NS(=O)(=O)c1cc(NC(=O)c2ccc(NC(C)(C)CO)nc2N2CCC3(CC2)CC3)ccc1F [Example 105-17, N-(3-(N-(tert-butyl)sulfamoyl)-4-fluorophenyl)-6-((1-hydroxy-2-methylpropan-2-yl)amino)-2-(6-azaspiro[2.5]octan-6-yl)nicotinamide] | 0.116
4 | COc1ccc(C(=O)Nc2cccc(S(=O)(=O)C3CCCC3)c2)c(N2CCC3(CC2)CC3)n1 [Example 104-1, N-(3-(cyclopentylsulfonyl)phenyl)-6-methoxy-2-(6-azaspiro[2.5]octan-6-yl)nicotinamide] | 0.261
5 | O=C(Nc1cccc(S(=O)(=O)C2CCCC2)c1)c1cccnc1N1CCC2(CCC2)CC1 [Example 100-18, N-(3-(cyclopentylsulfonyl)phenyl)-2-(7-azaspiro[3.5]nonan-7-yl)nicotinamide] | 0.134
6 | Cc1ccc(NC(=O)c2ccc(NC(C)(C)CO)nc2N2CCC3(CCC3)CC2)cc1S(=O)(=O)C1CCCC1 [Example 105-9, N-(3-(cyclopentylsulfonyl)-4-methylphenyl)-6-((1-hydroxy-2-methylpropan-2-yl)amino)-2-(7-azaspiro[3.5]nonan-7-yl)nicotinamide] | 0.068
7 | CC(C)(O)C(C)(C)Nc1ccc(C(=O)Nc2cccc(S(=O)(=O)C3CCCC3)c2)c(N2CCC3(CC2)CC3)n1 [Example 103-18, N-(3-(cyclopentylsulfonyl)phenyl)-6-((3-hydroxy-2,3-dimethylbutan-2-yl)amino)-2-(6-azaspiro[2.5]octan-6-yl)nicotinamide] | 0.109
8 | O=C(Nc1cccc(S(=O)(=O)C2CCCC2)c1)c1ccc(OC2COC2)nc1N1CCC2(CC1)CC2 [Example 104, N-(3-(cyclopentylsulfonyl)phenyl)-6-(oxctan-3-yloxy)-2-(6-azaspiro[2.5]octan-6-yl)nicotinamide] | 0.296
9 | CCC1CCN(c2ncccc2C(=O)Nc2cccc(S(=O)(=O)C3CCCC3)c2)CC1 [Example 100-15, N-(3-(cyclopentylsulfonyl)phenyl)-2-(4-ethylpiperidin-1-yl)nicotinamide] | 0.85
10 | CC(C)(C)NS(=O)(=O)c1cccc(NC(=O)c2ccc(NC(C)(C)CO)nc2N2CCC3(CC2)CC3)c1F [Example 105-23, N-(3-(N-(tert-butyl)sulfamoyl)-2-fluorophenyl)-6-((1-hydroxy-2-methylpropan-2-yl)amino)-2-(6-azaspiro[2.5]octan-6-yl)nicotinamide] | 0.177
11 | CC(C)(C)NS(=O)(=O)c1cccc(NC(=O)c2ccc([C@](C)(O)C(F)(F)F)nc2N2CCC3(CC2)CC3)c1 (single isomer, unassigned) [Example 107-1] | 0.07
12 | O=C(Nc1cccc(S(=O)(=O)C2CCCC2)c1)c1ccc(NCC2(O)CCC2)nc1N1CCC2(CC1)CC2 [Example 103-17, N-(3-(cyclopentylsulfonyl)phenyl)-6-(((1-hydroxycyclobutyl)methyl)amino)-2-(6-azaspiro[2.5]octan-6-yl)nicotinamide] | 0.168
13 | CC(C)(C)NS(=O)(=O)c1cccc(NC(=O)c2ccc(CS(C)(=O)=O)nc2N2CCC3(CC2)CC3)c1 [Example 113, N-(3-(N-(tert-butyl)sulfamoyl)phenyl)-6-((methylsulfonyl)methyl)-2-(6-azaspiro[2.5]octan-6-yl)nicotinamide] | 0.103
14 | CCC1(C)CCN(c2ncccc2C(=O)Nc2cccc(S(=O)(=O)C3CCCC3)c2)CC1 [Example 100-16, N-(3-(cyclopentylsulfonyl)phenyl)-2-(4-ethyl-4-methylpiperidin-1-yl)nicotinamide] | 1.01
15 | O=C(Nc1cccc(S(=O)(=O)C2CCCC2)c1)c1ccc(NC2(CCO)CC2)nc1N1CCC2(CC1)CC2 [Example 103-19, N-(3-(cyclopentylsulfonyl)phenyl)-6-((1-(2-hydroxyethyl)cyclopropyl)amino)-2-(6-azaspiro[2.5]octan-6-yl)nicotinamide] | 0.055
16 | CC(C)(C)NS(=O)(=O)c1cccc(NC(=O)c2ccc(NS(C)(=O)=O)nc2N2CCC3(CC2)CC3)c1 [Example 110, N-(3-(N-(tert-butyl)sulfamoyl)phenyl)-6-(methylsulfonamido)-2-(6-azaspiro[2.5]octan-6-yl)nicotinamide] | 0.091
17 | O=C(Nc1cccc(S(=O)(=O)C2CCCC2)c1)c1ccc(N2CCC2)nc1N1CCC2(CCC2)CC1 [Example 103-26, 6-(azctidin-1-yl)-N-(3-(cyclopentylsulfonyl)phenyl)-2-(7-azaspiro[3.5]nonan-7-yl)nicotinamide] | 0.141

Row | SMILES | IC50 [µM]
18 | Cc1ccc(NC(=O)c2ccncc2N2CCC3(CC2)CC3)cc1C(=O)N1CCC(F)(F)CC1 [Example 115-4, N-(3-(4,4-difluoropiperidine-1-carbonyl)-4-methylphenyl)-3-(6-azaspiro[2.5]octan-6-yl)isonicotinamide] | 1.54
19 | CC(C)(C)NS(=O)(=O)c1cccc(NC(=O)c2ccc(N3CC[C@@H]4C[C@@H]43)nc2N2CCC3(CC2)CC3)c1 [Example 102-6, 6-((1S,5R)-2-azabicyclo[3.1.0]hexan-2-yl)-N-(3-(N-(tert-butyl)sulfamoyl)phenyl)-2-(6-azaspiro[2.5]octan-6-yl)nicotinamide] | 0.2
20 | O=C(Nc1cccc(S(=O)(=O)C2CCCC2)c1)c1cccnc1N1CCC2(CC1)CC(F)(F)C2 [Example 100-19, N-(3-(cyclopentylsulfonyl)phenyl)-2-(2,2-difluoro-7-azaspiro[3.5]nonan-7-yl)nicotinamide] | 0.734
21 | CC(C)(CO)Nc1ccc(C(=O)Nc2cccc(S(=O)(=O)C3CCC3)c2)c(N2CCC3(CC2)CC3)n1 [Example 105-6, N-(3-(cyclobutylsulfonyl)phenyl)-6-((1-hydroxy-2-methylpropan-2-yl)amino)-2-(6-azaspiro[2.5]octan-6-yl)nicotinamide] | 0.028
22 | Cn1nccc1-c1cccc(NC(=O)c2ccc(NC(C)(C)CO)nc2N2CCC3(CC2)CC3)c1 [Example 111-8, 6-((1-hydroxy-2-methylpropan-2-yl)amino)-N-(3-(1-methyl-1H-pyrazol-5-yl)phenyl)-2-(6-azaspiro[2.5]octan-6-yl)nicotinamide] | 0.542
23 | CCCC1CCN(c2ncccc2C(=O)Nc2cccc(S(=O)(=O)C3CCCC3)c2)CC1 [Example 100-17, N-(3-(cyclopentylsulfonyl)phenyl)-2-(4-propylpiperidin-1-yl)nicotinamide] | 0.778
24 | O=C(Nc1cccc(S(=O)(=O)N2CCC(F)CC2)c1)c1cccnc1N1CCC2(CCC2)CC1 [Example 100-5, N-(3-((4-fluoropiperidin-1-yl)sulfonyl)phenyl)-2-(7-azaspiro[3.5]nonan-7-yl)nicotinamide] | 0.16
25 | C[C@H](O)CNc1ccc(C(=O)Nc2cccc(S(=O)(=O)C3CCCC3)c2)c(N2CCC3(CC2)CC3)n1 [Example 103-12, (S)-N-(3-(cyclopentylsulfonyl)phenyl)-6-((2-hydroxypropyl)amino)-2-(6-azaspiro[2.5]octan-6-yl)nicotinamide] | 0.065
26 | CC(C)(C)NS(=O)(=O)c1cccc(NC(=O)c2ccc(N[C@H]3CC[C@H](O)C3)nc2N2CCC3(CC2)CC3)c1 [Example 102-23, N-(3-(N-(tert-butyl)sulfamoyl)phenyl)-6-(((1S,3S)-3-hydroxycyclopentyl)amino)-2-(6-azaspiro[2.5]octan-6-yl)nicotinamide] | 0.185
27 | CC(C)(C)NS(=O)(=O)c1cccc(NC(=O)c2ccc(N3CC(O)(C(F)(F)F)C3)nc2N2CCC3(CC2)CC3)c1 [Example 102-14, N-(3-(N-(tert-butyl)sulfamoyl)phenyl)-6-(3-hydroxy-3-(trifluoromethyl)azetidin-1-yl)-2-(6-azaspiro[2.5]octan-6-yl)nicotinamide] | 0.28
28 | O=C(Nc1cccc(S(=O)(=O)C2CCCC2)c1)c1ccc(N2CCOCC2)nc1N1CCC2(CCC2)CC1 [Example 103-27, N-(3-(cyclopentylsulfonyl)phenyl)-6-morpholino-2-(7-azaspiro[3.5]nonan-7-yl)nicotinamide] | 0.688
29 | CC(C)(C)NC(=O)c1cccc(NC(=O)c2ccc(NC(C)(C)CO)nc2N2CCC3(CC2)CC3)c1 [Example 105-25, N-(3-(tert-butylcarbamoyl)phenyl)-6-((1-hydroxy-2-methylpropan-2-yl)amino)-2-(6-azaspiro[2.5]octan-6-yl)nicotinamide] | 0.314
30 | O=C(Nc1cccc(C(=O)N2CCCC(F)(F)C2)c1)c1ccncc1N1CCC2(CC1)CC2 [Example 115-5, N-(3-(3,3-difluoropiperidine-1-carbonyl)phenyl)-3-(6-azaspiro[2.5]octan-6-yl)isonicotinamide] | 1.68
31 | CCC1CCN(c2ncccc2C(=O)Nc2cccc(S(=O)(=O)N3CCCCC3)c2)CC1 [Example 100-2, 2-(4-ethylpiperidin-1-yl)-N-(3-(piperidin-1-ylsulfonyl)phenyl)nicotinamide] | 0.983
32 | Cc1coc(-c2cccc(NC(=O)c3ccc(NC(C)(C)CO)nc3N3CCC4(CC3)CC4)c2)n1 [Example 111-5, 6-((1-hydroxy-2-methylpropan-2-yl)amino)-N-(3-(4-methyloxazol-2-yl)phenyl)-2-(6-azaspiro[2.5]octan-6-yl)nicotinamide] | 0.225
33 | CC(C)(C)NS(=O)(=O)c1cccc(NC(=O)c2ccc(N3CCC(F)(F)C3)nc2N2CCC3(CC2)CC3)c1 [Example 102-2, N-(3-(N-(tert-butyl)sulfamoyl)phenyl)-6-(3,3-difluoropyrrolidin-1-yl)-2-(6-azaspiro[2.5]octan-6-yl)nicotinamide] | 0.302
